The subject of experiment [1] is PAF-induced rabbit platelet aggregation. The experiment can be described thus: Inhibition of PAF-induced rabbit platelet aggregation (in vitro, platelet-rich plasma). It is filed as cell-based. As to conditions: Oryctolagus cuniculus, rabbit PRP, 37° C., final PAF concentration 0.005 μ1/ml [sic]. The method, then:
(§1) The inhibition of PAF-induced platelet aggregation was examined by using a platelet-rich plasma (PRP) of rabbit according to the method of Mustard et al. [J.F. Mustard et al., J. Lab. Clin. Med., 64, 548 (1964)], which is an improvement of the method of Born [G.V.R. Born, J. Physiol., London, 162, 67 (1962)]. That is, 80-100 ml of blood per animal was collected from carotid arteries of male rabbits of the Japanese white breed without anesthesia into a polyethylene vessel containing 1/10 the volume of a 3.8% sodium citrate solution. A portion (about 3 ml) of the collected blood was centrifuged at a high speed (11,000 rpm) for 60 seconds, giving a platelet-poor plasma (PPP) as supernatant. The remainder of the blood was centrifuged at a low speed (1000 rpm) for 10 minutes, giving a platelet-rich plasma (PRP) as supernatant.
(§2) The degree of platelet aggregation was determined by nephelometry with an aggregometer (Hematracer, Niko Bioscience Co.) while stirring the PRP at 1000 rpm at 37° C. The platelet aggregation activity was expressed in terms of the light transmittance (%), the value of PRP being taken as 0% and the value of PPP as 100%. A portion (0.2 ml) of the PRP was placed in a glass cuvette containing a silicone-treated stirring iron rod, and 2 µl of dimethylsulfoxide was added. AFter 2 minutes, PAF dissolved in 0.25% BSA physiological saline was added to give a final PAF concentration of 0.005 μ1/ml, and the maximum aggregation was determined. To examine the inhibitory activity of test compounds on the platelet aggregation caused by PAF, 2 µl of a dimethylsulfoxide solution of each test compound was added in place of the dimethylsulfoxide. The percentage inhibition by the test compound of PAF-induced platelet aggregation was calculated according to the following equation and the value of IC50 was determined. [formula]

Experiment [2] deals with PAF-induced human platelet aggregation. The experiment can be described thus: Inhibition of PAF-induced human platelet aggregation (in vitro, human PRP). It is filed as cell-based. The method, then: as §1, §2
The inhibition of PAF-induced platelet aggregation was tested by using human PRP. The test was conducted according to the procedure of the above case of rabbit, thereby evaluating the percentages inhibition and IC50 values of test compounds at final PAF concentrations of 0.3 μM and 1 μM.

Experiment [3] deals with PAF-induced blood concentration. The experiment can be described thus: Test in vivo for inhibition of PAF-induced blood concentration. As to conditions: guinea pigs, dose 3 mg/kg iv, PAF iv 2 min later. The method, then:
Guinea pigs under anesthesia with urethane (6.25 mg/kg injected into the abdominal cavities) were cannulated through carotid arteries and jugular veins. The carotid artery cannulae were used for blood sampling and the jugular vein cannulae for the intravenous injection of test compound and PAF.
Compound No. 27 was suspended in 10% Nikkol® liquid to a concentration of 3 mg/ml, and 1 ml/kg of the resulting suspension was administered through the jugular vein cannulae. Two minutes later, 1 ml/kg of a 0.1 μg/m1 PAF solution was administered through the jugular vein cannulae. Then, blood was sampled at times. The blood samples were each centrifuged at 11,000 rpm for 5 minutes and the hematocrit values were measured to determine the maximum increase (blood concentration) in hematocrit value.
For a control, 0.5% methyl cellulose solution was administered in place of compound No. 27.
The percentage inhibition of the PAF-induced blood concentration by compound No. 27 was calculated according to the following equation: [formula] The found percentage inhibition was 87%.

Values after ≈ are worked out from the molar mass of the structure shown.

For `C[C@H]1S[C@@H](c2cccnc2)N(C)C1=O` (relative stereo) [Compound No. 2, 3,5-Dimethyl-2-(3-pyridyl)thiazolidin-4-one], the values for the IC50 in experiment [1] and in experiment [2] (PAF concentration 0.3 μM) were 4 µg/mL (≈ 19.2 µM) and 5.5 µg/mL (≈ 26.4 µM), respectively. Besides, the “Percentage inhibition of PAF-induced blood concentration (maximum increase in hematocrit value)” value in experiment [3] amounted to 53%. In the case of `CCOC(=O)CN1C(=O)[C@@H](C)S[C@H]1c1cccnc1` (relative stereo) [Compound No. 9, 3-ethoxycarbonylmethyl-5-methyl-2(3-pyridyl)thiazolidin-4-one], the concentration for half-maximal inhibition (IC50) (in general, the concentration that gives 50% inhibition) in experiment [1] worked out at 1.6 µg/mL (≈ 5.71 µM). Still for that read-out and setting: the result for `C[C@H]1S[C@H](c2cccnc2)N(CC(=O)OC(C)(C)C)C1=O` (relative stereo) [Compound No. 15, 3-t-butyloxycarbonylmethyl-5-methyl-2-(3-pyridyl)thiazolidin-4-one] reads 2.6 µg/mL (≈ 8.43 µM); that for `CC(=O)SCCN1C(=O)[C@@H](C)S[C@H]1c1cccnc1` (relative stereo) [Compound No. 18, 3-(2-Acetylthioethyl)-5-methyl-2(3-pyridyl)thiazolidin-4-one], 3 µg/mL (≈ 10.1 µM). Regarding `CCCCCCCCC[C@H]1S[C@H](c2cccnc2)N(CCN(C)C)C1=O` (relative stereo) [Compound No. 27, 3-(2-dimethylaminoethyl)-5-(n-nonyl)-2-(3-pyridyl)thiazolidin-4-one], the IC50 came to 0.02 µg/mL (≈ 0.053 µM) in experiment [1], 0.2 µg/mL (≈ 0.53 µM) in experiment [2] (PAF concentration 0.3 μM) and 0.4 µg/mL (≈ 1.06 µM) in experiment [2] (PAF concentration 1 μM). The “Percentage inhibition of PAF-induced blood concentration (maximum increase in hematocrit value)” value in experiment [3] is on record as 87%.

Take `C#CCN1C(=O)[C@@H](C)S[C@@H]1c1cccnc1` (relative stereo) [compound 33]: the half-inhibitory concentration (IC50) in experiment [2] (PAF concentration 0.3 μM) turned out to be 5.5 µg/mL (≈ 23.7 µM).

In turn, `COc1ccc(CCN2C(=O)[C@@H](C)S[C@@H]2c2cccnc2)cc1OC` (relative stereo) [compound 37] registered a half-inhibitory concentration (IC50) in experiment [1] of 0.7 µg/mL (≈ 1.95 µM). On to `CCCCCCCCC[C@H]1S[C@H](c2cccnc2)N(C)C1=O` (relative stereo) [compound 49], for which the IC50 in experiment [1] came out at 2.4 µg/mL (≈ 7.49 µM). As for `CCCCCCCCC[C@H]1S[C@@H](c2cccnc2)N(C)C1=O` (relative stereo) [compound 50], in experiment [1], inhibition was half-maximal at 4.6 µg/mL (≈ 14.4 µM) (IC50). On the same count and under the same terms, the result for `CCC[C@H]1S[C@H](c2cccnc2)N(CCN(C)C)C1=O` (relative stereo) [compound 67] reads 0.45 µg/mL (≈ 1.53 µM); that for `CCCC[C@H]1S[C@H](c2cccnc2)N(CCN(C)C)C1=O` (relative stereo) [compound 69], 0.24 µg/mL (≈ 0.781 µM); that for `CCCCC[C@H]1S[C@H](c2cccnc2)N(CCN(C)C)C1=O` (relative stereo) [compound 71], 0.32 µg/mL (≈ 0.995 µM). The same measure, in the same setting: the result for `CCCCCC[C@H]1S[C@H](c2cccnc2)N(CCN(C)C)C1=O` (relative stereo) [compound 73] reads 0.07 µg/mL (≈ 0.209 µM). On the same count and under the same terms, under `CCCCCCC[C@H]1S[C@H](c2cccnc2)N(CCN(C)C)C1=O` (relative stereo) [compound 75] stands 0.06 µg/mL (≈ 0.172 µM); under `CCCCCCC[C@H]1S[C@@H](c2cccnc2)N(CCN(C)C)C1=O` (relative stereo) [compound 76], 0.2 µg/mL (≈ 0.572 µM). As for `CCCCCCCC[C@H]1S[C@H](c2cccnc2)N(CCN(C)C)C1=O` (relative stereo) [compound 77], half-maximal inhibition in experiment [1] (IC50) required 0.034 µg/mL (≈ 0.0935 µM).

As to `CCCCCCCC[C@H]1S[C@@H](c2cccnc2)N(CCN(C)C)C1=O` (relative stereo) [compound 78], the IC50 in experiment [1] came to 0.14 µg/mL (≈ 0.385 µM). The same measure, in the same setting: under `CCCCCCCCCC[C@H]1S[C@H](c2cccnc2)N(CCN(C)C)C1=O` (relative stereo) [compound 79] stands 0.05 µg/mL (≈ 0.128 µM). The molecule `CCCCCCCCCC[C@H]1S[C@@H](c2cccnc2)N(CCN(C)C)C1=O` (relative stereo) [compound 80] gave an IC50 in experiment [1] of 0.35 µg/mL (≈ 0.894 µM).

`CCCCCCCCCCC[C@H]1S[C@H](c2cccnc2)N(CCN(C)C)C1=O` (relative stereo) [compound 81]: in experiment [1], it took 0.1 µg/mL (≈ 0.247 µM) to reach half-maximal inhibition (IC50). The same measure, in the same setting: under `CCCCCCCCCCC[C@H]1S[C@@H](c2cccnc2)N(CCN(C)C)C1=O` (relative stereo) [compound 82] stands 0.6 µg/mL (≈ 1.48 µM); under `CCCCCCCCCCCC[C@H]1S[C@H](c2cccnc2)N(CCN(C)C)C1=O` (relative stereo) [compound 83], 0.27 µg/mL (≈ 0.643 µM).

For `CCCCCCCCC[C@H]1S[C@@H](c2cccnc2)N(CCCN(C)C)C1=O` (relative stereo) [compound 108], the concentration for half-maximal inhibition (IC50) worked out at 0.7 µg/mL (≈ 1.79 µM) in experiment [1], 1.8 µg/mL (≈ 4.6 µM) in experiment [2] (PAF concentration 0.3 μM) and 6 µg/mL (≈ 15.3 µM) in experiment [2] (PAF concentration 1 μM). In experiment [1], `C[C@H]1S[C@H](c2cccnc2)N(CCN(C)C)C1=O` (relative stereo) [compound 127] registered a concentration for half-maximal inhibition (IC50) of 1.7 µg/mL (≈ 6.41 µM). Same read-out and setting: the result for `C[C@H]1S[C@@H](c2cccnc2)N(CCN(C)C)C1=O` (relative stereo) [compound 128] reads 4.2 µg/mL (≈ 15.8 µM); that for `CN(C)CCN1C(=O)[C@@H](CCOCc2ccccc2)S[C@@H]1c1cccnc1` (relative stereo) [compound 131], 0.14 µg/mL (≈ 0.363 µM); that for `CCCCOCC[C@H]1S[C@H](c2cccnc2)N(CCN(C)C)C1=O` (relative stereo) [compound 133], 0.18 µg/mL (≈ 0.512 µM). Same read-out and setting: the result for `CCCCOCCOCC[C@H]1S[C@H](c2cccnc2)N(CCN(C)C)C1=O` (relative stereo) [compound 135] reads 0.15 µg/mL (≈ 0.379 µM); that for `CC(C)COCCOCC[C@H]1S[C@H](c2cccnc2)N(CCN(C)C)C1=O` (relative stereo) [compound 150], 0.16 µg/mL (≈ 0.404 µM).

In experiment [1], `CN(C)CCN1C(=O)[C@@H](CCCO[Si](C)(C)C(C)(C)C)S[C@@H]1c1cccnc1` (relative stereo) [compound 169] returned an IC50 of 0.026 µg/mL (≈ 0.0614 µM).

`CN(C)CCN1C(=O)[C@@H](CCCO[Si](C)(C)C(C)(C)C)S[C@H]1c1cccnc1` (relative stereo) [compound 170] gave an IC50 in experiment [1] of 0.052 µg/mL (≈ 0.123 µM). The same measure, in the same setting: the result for `C[C@H]1S[C@@H](c2cccnc2)N(C)C1=O` (single isomer, unassigned) [compound 178, (+)-cis-3,5-dimethyl-2-(3-pyridyl)-thiazolidin-4-one] reads 1.5 µg/mL (≈ 7.2 µM); that for `C[C@@H]1S[C@@H](c2cccnc2)N(C)C1=O` (single isomer, unassigned) [compound 181, (+)-trans-3,5-dimethyl-2-(3-pyridyl)-thiazolidin-4-one], 5 µg/mL (≈ 24 µM). The same measure, in the same setting: the result for `CCCCC1SC(c2cccnc2)N(C)C1=O` (stereo not shown) [compound 7, 5-butyl-3-methyl-2-(3-pyridyl)-thiazolidin-4-one] reads 2 µg/mL (≈ 7.99 µM); that for `CN1C(=O)C(C)(C)SC1c1cccnc1` (stereo not shown) [compound 8, 5,5,3-trimethyl-2-(3-pyridyl)-thiazolidin-4-one], 3.6 µg/mL (≈ 16.2 µM). As to `CCC1SC(c2cccnc2)N(CCN(C)C)C1=O` (stereo not shown) [compound 24, 5-ethyl-3-(2-dimethylaminoethyl)-2-(3-pyridyl)thiazolidin-4-one], the IC50 in experiment [1] came out at 2 µg/mL (≈ 7.16 µM). Same read-out and setting: under `CN(C)CCN1C(=O)C(C)(C)SC1c1cccnc1` (stereo not shown) [compound 25, 5,5-dimethyl-3-(2-dimethylaminoethyl)2-(3-pyridyl)thiazolidin-4-one] stands 10 µg/mL (≈ 35.8 µM). The molecule `CCN1C(=O)C(C)SC1c1cccnc1` (stereo not shown) [compound 30] came in with an IC50 in experiment [1] of 4.2 µg/mL (≈ 18.9 µM).

In turn, `CCC1SC(c2cccnc2)N(C)C1=O` (stereo not shown) [compound 42] displayed an IC50 in experiment [1] of 2.5 µg/mL (≈ 11.2 µM). On the same count and under the same terms, under `CCCC1SC(c2cccnc2)N(C)C1=O` (stereo not shown) [compound 43] stands 1.2 µg/mL (≈ 5.08 µM); under `CCCCCC1SC(c2cccnc2)N(C)C1=O` (stereo not shown) [compound 46], 1.9 µg/mL (≈ 7.19 µM). As to `CCCCCCC1SC(c2cccnc2)N(C)C1=O` (stereo not shown) [compound 47], in experiment [1], the half-inhibitory concentration (IC50) was found to be 1.4 µg/mL (≈ 5.03 µM). Still for that read-out and setting: under `CCCCCCCCCCC1SC(c2cccnc2)N(C)C1=O` (stereo not shown) [compound 51] stands 1.4 µg/mL (≈ 4.18 µM); under `CN(C)CCN1C(=O)C(CCOCc2ccccc2)(CCOCc2ccccc2)SC1c1cccnc1` (stereo not shown) [compound 130], 4.2 µg/mL (≈ 8.08 µM).

In experiment [1], `CCOCCCC1SC(c2cccnc2)N(CCN(C)C)C1=O` (stereo not shown) [compound 137] returned an IC50 of 0.19 µg/mL (≈ 0.563 µM).

Molecule `CC(C)OCCC1SC(c2cccnc2)N(CCN(C)C)C1=O` (stereo not shown) [compound 154] gave an IC50 in experiment [1] of 2.4 µg/mL (≈ 7.11 µM). Turning to `CN(C)CCN1C(=O)C(CCOCCO[Si](C)(C)C(C)(C)C)SC1c1cccnc1` (stereo not shown) [compound 165], the half-inhibitory concentration (IC50) in experiment [1] came to 0.3 µg/mL (≈ 0.661 µM). In experiment [1], `CN(C)CCN1C(=O)C(CC(F)(F)F)SC1c1cccnc1` (stereo not shown) [compound 171] displayed an IC50 of 4.2 µg/mL (≈ 12.6 µM).

(Values after US4992455A, “Thiazolidin-4-one derivatives useful for treating diseases caused by platelet activating factor” (Sumitomo Pharmaceuticals Company, Limited, priority 1987, dated 1991).)
